Test results as given in ChEMBL document CHEMBL4725331, “An investigative study of antitumor properties of a novel thiazolo[4,5-d]pyrimidine small molecule revealing superior antitumor activity with CDK1 selectivity and potent pro-apoptotic properties” (Bioorg Med Chem, 2020).

Tests used:
786-0 = assay: Antiproliferative activity against human 786-0 cells assessed as inhibition of cell growth at 10 uM measured after 48 hrs by SRB assay relative to control; assay type: functional
UACC-257 = assay: Antiproliferative activity against human UACC-257 cells assessed as inhibition of cell growth measured after 48 hrs by SRB assay; assay type: functional
SN12C = assay: Antiproliferative activity against human SN12C cells assessed as inhibition of cell growth measured after 48 hrs by SRB assay; assay type: functional
DU-145 = assay: Antiproliferative activity against human DU-145 cells assessed as inhibition of cell growth measured after 48 hrs by SRB assay; assay type: functional
SNB-75 = assay: Antiproliferative activity against human SNB-75 cells assessed as inhibition of cell growth measured after 48 hrs by SRB assay; assay type: functional
HCT-116 [1] = assay: Induction of apoptosis in human HCT116 cells assessed as up regulation of caspase-9 expression by RT-PCR analysis relative to untreated control; assay type: functional
RPMI-8226 = assay: Antiproliferative activity against human RPMI-8226 cells assessed as inhibition of cell growth measured after 48 hrs by SRB assay; assay type: functional
A498 = assay: Antiproliferative activity against human A498 cells assessed as inhibition of cell growth measured after 48 hrs by SRB assay; assay type: functional
HCT-116 [2] = assay: Antiproliferative activity against human HCT-116 cells assessed as inhibition of cell growth measured after 48 hrs by SRB assay; assay type: functional
EKVX [3] = assay: Antiproliferative activity against human EKVX cells assessed as inhibition of cell growth measured after 48 hrs by SRB assay; assay type: functional
MCF7 = assay: Antiproliferative activity against human MCF7 cells assessed as inhibition of cell growth at 10 uM measured after 48 hrs by SRB assay relative to control; assay type: functional
EKVX [4] = assay: Antiproliferative activity against human EKVX cells assessed as inhibition of cell growth at 10 uM measured after 48 hrs by SRB assay relative to control; assay type: functional
WI-38 = assay: Cell cycle arrest in human WI-38 cells assessed as accumulation in G2/M phase phase at IC50 concentration incubated for 48 hrs by propidium iodide staining based flow cytometry analysis (reference value: 7.16 %); conditions: wi-38, 48 h
SNB-19 = assay: Antiproliferative activity against human SNB-19 cells assessed as inhibition of cell growth at 10 uM measured after 48 hrs by SRB assay relative to control; assay type: functional
ACHN = assay: Antiproliferative activity against human ACHN cells assessed as inhibition of cell growth measured after 48 hrs by SRB assay; assay type: functional
SF-268 = assay: Antiproliferative activity against human SF-268 cells assessed as inhibition of cell growth measured after 48 hrs by SRB assay; assay type: functional
NCI-H226 = assay: Antiproliferative activity against human NCI-H226 cells assessed as inhibition of cell growth measured after 48 hrs by SRB assay; assay type: functional
SW-620 = assay: Antiproliferative activity against human SW-620 cells assessed as inhibition of cell growth measured after 48 hrs by SRB assay; assay type: functional
[5] = read-out: LC50 (the source's name)

## COc1ccc(-n2c(=S)sc3c(Cl)nc(C)nc32)c(OC)c1
786-0
  inhibition at 10 µM: > 50%
UACC-257
  GI50: 2.34 µM
  TGI: 5.62 µM
UACC-257; [5]
  CC50: 18.2 µM
SN12C
  GI50: 2.82 µM
  TGI: 9.12 µM
SN12C; [5]
  CC50: 36.3 µM
DU-145
  GI50: 1.86 µM
  TGI: 3.24 µM
DU-145; [5]
  CC50: 5.75 µM
SNB-75
  GI50: 1.95 µM
  TGI: 4.27 µM
SNB-75; [5]
  CC50: 9.33 µM
HCT-116 [1]
  fold change (FC): 15.9
RPMI-8226
  GI50: 3.47 µM
  TGI: 14.1 µM
RPMI-8226; [5]
  CC50: > 100 µM
A498
  GI50: 11.5 µM
  TGI: 24 µM
A498; [5]
  CC50: 49 µM
HCT-116 [2]
  GI50: 1.82 µM
  TGI: 3.72 µM
HCT-116 [2]; [5]
  CC50: 7.59 µM
EKVX [3]
  GI50: 4.57 µM
  TGI: 17 µM
EKVX [3]; [5]
  CC50: 43.6 µM
MCF7
  inhibition at 10 µM: > 50%
EKVX [4]
  inhibition at 10 µM: > 50%
WI-38
  Activity: 12.27%
SNB-19
  inhibition at 10 µM: > 50%
ACHN
  GI50: 2.09 µM
  TGI: 3.98 µM
ACHN; [5]
  CC50: 7.59 µM
SF-268
  GI50: 2.19 µM
  TGI: 5.25 µM
SF-268; [5]
  CC50: 17 µM
NCI-H226
  GI50: 3.24 µM
  TGI: 12 µM
NCI-H226; [5]
  CC50: 44.7 µM
SW-620
  GI50: 2.57 µM
  TGI: 5.5 µM
SW-620; [5]
  CC50: 28.8 µM
